According to publication PMC9632963, “Preclinical characterization and phase I clinical trial of CT053PTSA targets MET, AXL, and VEGFR2 in patients with advanced solid tumors” (Frontiers in Immunology, 2022):

Tested on: patients with advanced solid tumors
Test: Phase I trial: safety, tolerability, DLT, MTD (CTCAE v4.0)
Type: in vivo
From the text: Eligible patients had at least one measurable lesion per RECIST v 1.1, Eastern Cooperative Oncology Group (ECOG) performance status of 0 or 1, and adequate hematological, renal, cardiac and hepatic functions. The primary objectives were to assess safety and tolerability as well as to determine the MTD, DLT, and dose recommended for further study. The secondary objectives were to assess the PK and preliminary efficacy of CT053PTSA.
An initial accelerated titration design was used in the 15 and 30 mg QD cohorts, and the “3+3” schema was used starting in the 60 mg QD cohort. […] The study protocol was approved by an institutional review board at Sun Yat-sen University Cancer Center. Written informed consent was obtained from all the patients before enrollment.
Descriptive statistics of safety are presented per CTCAE v4.0. Subjects who received at least one dose of CT053PTSA were considered eligible to be evaluated and included in safety analyses. […] According to the RECIST 1.1 criteria, imaging examinations were performed at each specified time point in the protocol. The antitumor activity was measured by RECIST1.1.

## Cc1c(C(=O)Nc2ccc(Oc3ccnc4cc(OCC(C)(C)O)ccc34)c(F)c2)c(=O)n(-c2ccccc2)n1C [CT053PTSA]
30mg (n = 1)
  Nausea, All: 0 n (%)
  Nausea, ≥ G3: 0 n (%)
  Oropharyngeal pain, All: 0 n (%)
  Oropharyngeal pain, ≥ G3: 0 n (%)
  Pain, All: 0 n (%)
  Pain, ≥ G3: 0 n (%)
  Palmar-plantar erythrodysaesthesia syndrome, All: 0 n (%)
  Palmar-plantar erythrodysaesthesia syndrome, ≥ G3: 0 n (%)
  Platelet count decreased, All: 0 n (%)
  Platelet count decreased, ≥ G3: 0 n (%)
  Proteinuria, All: 0 n (%)
  Proteinuria, ≥ G3: 0 n (%)
  Pyrexia, All: 0 n (%)
  Pyrexia, ≥ G3: 0 n (%)
  Sinus bradycardia, All: 0 n (%)
  Sinus bradycardia, ≥ G3: 0 n (%)
  Stomatitis, All: 0 n (%)
  Stomatitis, ≥ G3: 0 n (%)
  Vomiting, All: 0 n (%)
  Vomiting, ≥ G3: 0 n (%)
  leukopenia, All: 0 n (%)
  leukopenia, ≥ G3: 0 n (%)
  neutropenia, All: 0 n (%)
  neutropenia, ≥ G3: 0 n (%)
  transaminase elevation, All: 0 n (%)
  transaminase elevation, ≥ G3: 0 n (%)
60mg (n = 6)
  Anaemia, All: 0 n (%)
  Anaemia, ≥ G3: 0 n (%)
  Blood chloride decreased, All: 0 n (%)
  Blood chloride decreased, ≥ G3: 0 n (%)
  Blood creatinine increased, All: 0 n (%)
  Blood creatinine increased, ≥ G3: 0 n (%)
  Blood potassium decreased, All: 0 n (%)
  Blood potassium decreased, ≥ G3: 0 n (%)
  Blood sodium decreased, All: 0 n (%)
  Blood sodium decreased, ≥ G3: 0 n (%)
  Blood uric acid increased, All: 0 n (%)
  Blood uric acid increased, ≥ G3: 0 n (%)
  Decreased appetite, All: 0 n (%)
  Decreased appetite, ≥ G3: 0 n (%)
  Diarrhea, All: 0 n (%)
  Diarrhea, ≥ G3: 0 n (%)
  Dizziness, All: 0 n (%)
  Dizziness, ≥ G3: 0 n (%)
  Dry mouth, All: 0 n (%)
  Dry mouth, ≥ G3: 0 n (%)
  Electrocardiogram QT prolonged, All: 1 (16.7) n (%)
  Electrocardiogram QT prolonged, ≥ G3: 0 n (%)
  Electrolyte imbalance, All: 0 n (%)
  Electrolyte imbalance, ≥ G3: 0 n (%)
  Hemoglobin decreased, All: 0 n (%)
  Hemoglobin decreased, ≥ G3: 0 n (%)
  Hypertension, All: 0 n (%)
  Hypertension, ≥ G3: 0 n (%)
  Hyponatremia, All: 0 n (%)
  Hyponatremia, ≥ G3: 0 n (%)
  Hypoparathyroidism, All: 0 n (%)
  Hypoparathyroidism, ≥ G3: 0 n (%)
  Mouth ulceration, All: 0 n (%)
  Mouth ulceration, ≥ G3: 0 n (%)
  Nausea, All: 0 n (%)
  Nausea, ≥ G3: 0 n (%)
  Oropharyngeal pain, All: 0 n (%)
  Oropharyngeal pain, ≥ G3: 0 n (%)
  Pain, All: 0 n (%)
  Pain, ≥ G3: 0 n (%)
  Palmar-plantar erythrodysaesthesia syndrome, All: 0 n (%)
  Palmar-plantar erythrodysaesthesia syndrome, ≥ G3: 0 n (%)
  Platelet count decreased, All: 1 (16.7) n (%)
  Platelet count decreased, ≥ G3: 0 n (%)
  Proteinuria, All: 0 n (%)
  Proteinuria, ≥ G3: 0 n (%)
  Pyrexia, All: 0 n (%)
  Pyrexia, ≥ G3: 0 n (%)
  Sinus bradycardia, All: 0 n (%)
  Sinus bradycardia, ≥ G3: 0 n (%)
  Stomatitis, All: 0 n (%)
  Stomatitis, ≥ G3: 0 n (%)
  Vomiting, All: 0 n (%)
  Vomiting, ≥ G3: 0 n (%)
  leukopenia, All: 1 (16.7) n (%)
  leukopenia, ≥ G3: 0 n (%)
  neutropenia, All: 1 (16.7) n (%)
  neutropenia, ≥ G3: 0 n (%)
  transaminase elevation, All: 3 (50) n (%)
  transaminase elevation, ≥ G3: 0 n (%)
100mg (n = 7)
  Anaemia, All: 1 (14.3) n (%)
  Anaemia, ≥ G3: 0 n (%)
  Blood chloride decreased, All: 1 (14.3) n (%)
  Blood chloride decreased, ≥ G3: 0 n (%)
  Blood creatinine increased, All: 0 n (%)
  Blood creatinine increased, ≥ G3: 0 n (%)
  Blood potassium decreased, All: 0 n (%)
  Blood potassium decreased, ≥ G3: 0 n (%)
  Blood sodium decreased, All: 0 n (%)
